Data: patent US9079854B2 (priority 2007, dated 2015)
Read-outs that look alike come from different tables or passages of the source.

What was measured:
[1] = target: T1, human CB2 (hCB2) receptor (Homo sapiens, UniProt P34972); assay: CB2 binding assay, competitive binding of [3H]WIN 55212-2; conditions: for % Inhibition of Control Specific Binding / % of Control Specific Binding 1st / % of Control Specific Binding 2nd / % of Control Specific Binding Mean: CB2, Test Concentration 1.0E−05 (MD); for % of Control Specific Binding 1st: 1st determination; for % of Control Specific Binding 2nd: 2nd determination; for % Inhibition of Control Specific Binding CB2: Table 4, concentration not given; for inhibition at 10 µM: read-out: % inhibition hCB2 receptor, at 10 μM; for inhibition at 10 µM / inhibition at 1 µM: specific binding of [3H]-WIN55212-2; for inhibition at 1 µM: read-out: % inhibition hCB2 receptor, at 1 μM, CHO membranes
T1 construct: expressed in transfected cells; host or cells: CHO (Chinese hamster ovary) cells, membranes
T1 sequence (P34972 whole entry): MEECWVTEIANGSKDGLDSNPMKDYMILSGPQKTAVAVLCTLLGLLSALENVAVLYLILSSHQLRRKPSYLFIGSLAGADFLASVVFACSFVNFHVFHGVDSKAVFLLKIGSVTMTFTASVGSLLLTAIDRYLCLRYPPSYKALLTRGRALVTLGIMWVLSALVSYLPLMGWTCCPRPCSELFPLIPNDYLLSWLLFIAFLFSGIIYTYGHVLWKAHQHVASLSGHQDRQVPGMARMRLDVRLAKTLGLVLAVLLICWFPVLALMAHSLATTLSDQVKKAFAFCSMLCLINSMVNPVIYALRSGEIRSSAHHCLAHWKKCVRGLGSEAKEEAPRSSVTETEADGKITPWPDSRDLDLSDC
Experimental: Cell membrane homogenates (15 μg protein) are incubated for 120 min at 37° C. with 0.8 nM [^3H]WIN 55212-2 (the reference standard [Munro, 1993 #1321]) in the absence or presence of the test compound in a buffer containing 50 mM HEPES/Tris HCL (pH 7.4), 5 mM MgCl2, 2.5 mM EGTA, and 0.1% BSA. Nonspecific binding is determined in the presence of 10 μM WIN 55212-2. After being incubated, the samples are filtered rapidly under vacuum through glass fiber filters (GF/B; Packard) presoaked with 0.3% PEI and rinsed several times with ice-cold buffer containing 50 mM Tris HCl (pH 7.4) and 0.5% BSA using a 96-sample cell harvester (Unifilter; Packard). The filters are dried then counted for radioactivity in a scintillation counter (Topcount; Packard) using a scintillation cocktail (Microscint 0; Packard). The results are expressed as a percentage of the inhibition of the control radioligand-specific binding. The reference standard compounds are tested in each experiment at several concentrations to obtain a competition curve from which its IC50 is calculated.
(§1) […] [^3H]-CP55940 at a concentration of 0.5 nM and [^3H]-WIN55212 at a concentration of 0.8 nM were used as radioligands for hCB1 and hCB2 assays, respectively. The results are expressed as a percent inhibition of control specific binding. Compounds which displaced the radioligand by more than 50% for either hCB1 or hCB2 receptors were arbitrary chosen for functional activity determination.

[2] = target: T2, human CB1 (hCB1) receptor (Homo sapiens, UniProt P21554); assay: CB1 binding assay, competitive binding of [3H]CP 55940; parameters: % Inhibition of Control Specific Binding CB1: concentration or dose not given beside the values; conditions: for % of Control Specific Binding 1st: 1st determination; for % of Control Specific Binding 2nd: 2nd determination; for inhibition at 10 µM / inhibition at 1 µM: specific binding of [3H]-CP55940; for inhibition at 1 µM: CHO membranes
T2 construct: expressed in transfected cells; host or cells: CHO (Chinese hamster ovary) cells, membranes
T2 sequence (P21554 whole entry): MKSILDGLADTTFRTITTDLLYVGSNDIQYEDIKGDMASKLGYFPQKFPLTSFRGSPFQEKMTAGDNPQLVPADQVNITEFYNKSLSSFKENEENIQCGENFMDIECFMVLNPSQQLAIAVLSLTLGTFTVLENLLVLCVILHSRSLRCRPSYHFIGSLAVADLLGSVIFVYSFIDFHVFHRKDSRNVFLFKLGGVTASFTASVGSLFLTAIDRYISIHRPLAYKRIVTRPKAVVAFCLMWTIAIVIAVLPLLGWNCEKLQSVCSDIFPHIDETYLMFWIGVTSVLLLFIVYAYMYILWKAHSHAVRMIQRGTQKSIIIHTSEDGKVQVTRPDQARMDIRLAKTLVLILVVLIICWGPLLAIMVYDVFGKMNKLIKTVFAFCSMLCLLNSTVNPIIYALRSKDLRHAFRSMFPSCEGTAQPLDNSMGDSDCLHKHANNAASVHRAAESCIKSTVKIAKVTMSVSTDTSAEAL
Experimental: Cell membrane homogenates (25 μg protein) are incubated for 120 min at 37° C. with 0.5 nM [^3H]CP 55940 (the reference standard [Rinaldi-Carmona, 1996 #1320]) in the absence or presence of the test compound in a buffer containing 50 mM Tris HCl (pH 7.4), 5 mM MgCl2, 2.5 mM EDTA, and 0.3% bovine serum albumin (BSA). […]
as §1

hCB2 receptor = target: T3, hCB2 receptor (Homo sapiens, UniProt P34972); assay: CB2 functional assay, [35S]GTP-γ-S binding; type: biochemical
T3 construct: purchased ES-111-MG; host or cells: CHO membrane extracts
T3 sequence (P34972 whole entry): as the sequence (P34972 whole entry) above
Experimental: (§2) A dose response curve was generated at eight concentrations in duplicate on CB1 and CB2 in light of reference agonists.
(§3) Membranes (CB1, ES-110-MG or CB2, ES-111-MG) are mixed with GDP (volume:volume) and incubated for at least […] on ice. In parallel, […] are mixed with the beads (volume:volume) just before starting the reaction. The following reagents are successively added in the wells of an Optiplate: 50 μl of ligand, 20 μl of the membranes:GDP mix, 10 μl of assay buffer for agonist testing and 20 μl of the […]: beads mix. The plates are covered with a topseal, shaken on an orbital shaker for 2 min, and then incubated between 30 to 60 min at room temperature. Then the plates are centrifuged for 10 min at 2000 rpm, incubated at room temperature between 1 to 4 hours and counted for 1 min with a PerkinElmer TopCount reader.
(§4) Functional activity for acyl hydrazone was evaluated using [^35S]GTP-γ-S assay in CHO membrane extracts expressing recombinant hCB1 receptor or hCB2 receptor. The assay relies on the binding of [^35S]GTP-γ-S, a radiolabeled nonhydrolyzable GTP analogue, to the G protein upon binding of an agonist of the G-protein-coupled receptor. In this system, agonists stimulate [^35S]GTP-γ-S binding whereas neutral antagonist have no effect and inverse agonists decrease [^35S]GTP-γ-S basal binding.
(§5) CB1 and CB2 assay data are presented as the mean of two determinations. […] For replicate determinations, the maximum variability tolerated in the test was of ±20% around the average of the replicates.

CB1 = CB1 (Homo sapiens, UniProt P21554); assay: CB1 functional assay, [35S]GTP-γ-S binding; type: biochemical; parameters: purchased ES-110-MG; host or cells: CHO membrane extracts; conditions: for Emax at 3 µM: read-out: [35S]GTP-γ-S hCB1 Emax (%), Table 9 footnote a: Efficacy determined at 3 μM, relative to CP 55,940
CB1, sequence (P21554 whole entry): as the sequence (P21554 whole entry) above
Experimental: as §2, §3, §4, §5

[3] = CB1, Test Concentration 1.0E−05 (MD)
[4] = CB2 Functional Activity, read-out: EC50 (nM) for GTP Binding
[5] = Table 7, mean of two determinations, read-out: [35S]GTP-γ-S (hCB2) EC50 (nM ± SEM)
[6] = Table 7, relative to the efficacy of CP55940
[7] = Table 7, mean of two determinations, read-out: [35S]GTP-γ-S (hCB1) EC50 (nM ± SEM)
[8] = Table 9, mean of two determinations, read-out: [35S]GTP-γ-S hCB2 EC50 (nM ± SEM)
[9] = Table 9, relative to the efficacy of CP 55,940
[10] = Table 9, mean of two determinations, read-out: [35S]GTP-γ-S hCB1 EC50 (nM ± SEM)

## O=C(N/N=C1\C(=O)N(CCC2CCCCC2)c2ccccc21)c1ccccc1 [Example 5, Benzoic acid [1-(2-cyclohexyl-ethyl)-2-oxo-1,2-dihydro-indol-3-ylidene]-hydrazide]
[1]
  % Inhibition of Control Specific Binding: 80%
  % of Control Specific Binding 1st: 13.9%
  % of Control Specific Binding 2nd: 26.4%
  % of Control Specific Binding Mean: 20.2%
  % Inhibition of Control Specific Binding CB2: 80%
  inhibition at 10 µM: 79.8 ± 6.3%
[2]; [3]
  % of Control Specific Binding 1st: 0.4%
  % of Control Specific Binding 2nd: 7.7%
  % of Control Specific Binding Mean: 4%
[2]
  inhibition at 10 µM: 96 ± 3.7%
hCB2 receptor; CB2 Functional Activity
  % Activation Average: 55.55%
  Compound Activity: Agonist
hCB2 receptor; [4]
  EC50: 103 nM
hCB2 receptor; [5]
  EC50: 103 ± 1.6 nM
hCB2 receptor; [6]
  Emax: 55.6%
CB1; CB1 Functional Activity
  % Activation Average: 56.75%
  Compound Activity: Agonist
CB1; [6]
  Emax: 56.8%

## CCCCCCN1C(=O)/C(=N\NC(=O)Cc2ccccc2)c2ccccc21 [Example 7, Phenylacetic acid [1-n-hexyl-2-oxo-1,2-dihydro-indol-3-ylidene]-hydrazide]
[1]
  % Inhibition of Control Specific Binding: 92%
  % of Control Specific Binding 1st: 8.4%
  % of Control Specific Binding 2nd: 8.5%
  % of Control Specific Binding Mean: 8.5%
  % Inhibition of Control Specific Binding CB2: 92%
  inhibition at 10 µM: 91.5 ± 0.1%
[2]; [3]
  % Inhibition of Control Specific Binding: 98%
  % of Control Specific Binding 1st: 0.9%
  % of Control Specific Binding 2nd: 2.6%
  % of Control Specific Binding Mean: 1.8%
[2]; Table 3, concentration not given
  % Inhibition of Control Specific Binding CB1: 98%
[2]
  inhibition at 10 µM: 98.2 ± 0.8%
hCB2 receptor; CB2 Functional Activity
  % Activation Average: 45.79%
  Compound Activity: Agonist
hCB2 receptor; [4]
  EC50: 189 nM
hCB2 receptor; [5]
  EC50: 188.7 ± 1.3 nM
hCB2 receptor; [6]
  Emax: 45.8%
CB1; CB1 Functional Activity
  % Activation Average: 71.88%
  Compound Activity: Agonist
CB1; CB1 Functional Activity, read-out: EC50 (nM) for GTP Binding
  EC50: 459 nM
CB1; [7]
  EC50: 459 ± 1.1 nM
CB1; [6]
  Emax: 71.9%

## O=C(Cc1ccccc1)N/N=C1\C(=O)N(CCC2CCCCC2)c2ccccc21 [Example 10, N′-[1-(2-cyclohexylethyl)-2-oxo-1,2-dihydro-3H-indol-3-ylidene]-2-phenylacetohydrazide]
[1]
  inhibition at 10 µM: 47.2 ± 7.7%
[2]
  inhibition at 10 µM: 88.8 ± 0.6%
hCB2 receptor; [6]
  Emax: 21%
CB1; [7]
  EC50: 1238.8 ± 1.2 nM
CB1; [6]
  Emax: 75%

## CCCCCCN1C(=O)/C(=N\NC(=O)C2CCCCC2)c2ccccc21 [Example 11, N′-[(3Z)-1-hexyl-2-oxo-1,2-dihydro-3H-indol-3-ylidene]cyclohexanecarbohydrazide]
[1]
  inhibition at 1 µM: 61 ± 2.1%
[2]
  inhibition at 1 µM: 65.8 ± 0.2%
hCB2 receptor; [8]
  EC50: 79.1 ± 1.5 nM
hCB2 receptor; [9]
  Emax: 58%
CB1
  Emax at 3 µM: 40.9%

## CCCCCCN1C(=O)/C(=N\NC(=O)OC(C)(C)C)c2ccccc21 [Example 14, tert-butyl (2Z)-2-(1-hexyl-2-oxo-1,2-dihydro-3H-indol-3-ylidene)hydrazinecarboxylate]
[1]
  inhibition at 1 µM: 82.3 ± 0.8%
[2]
  inhibition at 1 µM: 85.1 ± 3.3%
hCB2 receptor; [8]
  EC50: 22.4 ± 1.3 nM
hCB2 receptor; [9]
  Emax: 43.4%
CB1; [10]
  EC50: 937.1 ± 1.2 nM
CB1; [9]
  Emax: 92%

## CCCCCCN1C(=O)/C(=N/NC(=O)OC(C)(C)C)c2ccccc21 [Example 15, tert-butyl (2E)-2-(1-hexyl-2-oxo-1,2-dihydro-3H-indol-3-ylidene)hydrazinecarboxylate]
[1]
  inhibition at 1 µM: 27 ± 3.7%
[2]
  inhibition at 1 µM: 75 ± 0.1%
hCB2 receptor; [35S]GTP-γ-S
  functional activity on CB2 receptor (in words): failed to exhibited functional activity
hCB2 receptor; read-out: [35S]GTP-γ-S hCB2 Emax (%), Table 9 footnote a: Efficacy determined at 3 μM, relative to CP 55,940
  Emax at 3 µM: 23.4%
CB1; [35S]GTP-γ-S
  functional activity on CB1 receptor (in words): failed to exhibited functional activity

## CCCCCCN1C(=O)/C(=N\NC(=O)c2ccc(OC)cc2)c2ccccc21 [Example 17, N′-[(3Z)-1-hexyl-2-oxo-1,2-dihydro-3H-indol-3-ylidene]-4-methoxybenzohydrazide]
[1]
  inhibition at 1 µM: 56 ± 5.7%
[2]
  inhibition at 1 µM: 81.7 ± 1.1%
hCB2 receptor; [8]
  EC50: 143 ± 2.6 nM
hCB2 receptor; [9]
  Emax: 49.5%
CB1; [10]
  EC50: 852 ± 1.2 nM
CB1; [9]
  Emax: 71%

## CCCCN1C(=O)/C(=N\NC(=O)c2ccccc2)c2ccccc21 [Example 22, N′-[(3Z)-1-(1-butyl)-2-oxo-1,2-dihydro-3H-indol-3-ylidene]benzohydrazide]
[1]
  inhibition at 1 µM: 70 ± 2.4%
[2]
  inhibition at 1 µM: 86 ± 2.4%
hCB2 receptor; [8]
  EC50: 40.1 ± 1.5 nM
hCB2 receptor; [9]
  Emax: 98.9%
CB1
  Emax at 3 µM: 69%

## CCCCCN1C(=O)/C(=N\NC(=O)c2ccccc2)c2ccccc21 [Example 23, N′-[(3Z)-1-(1-pentyl)-2-oxo-1,2-dihydro-3H-indol-3-ylidene]benzohydrazide]
[1]
  inhibition at 1 µM: 80 ± 0.9%
[2]
  inhibition at 1 µM: 95 ± 0.9%
hCB2 receptor; [8]
  EC50: 240 ± 3.2 nM
hCB2 receptor; [9]
  Emax: 68.5%
CB1; [10]
  EC50: 314.1 ± 1.6 nM
CB1; [9]
  Emax: 95.1%

## O=C(N/N=C1\C(=O)N(CC2CCCCC2)c2ccccc21)c1ccccc1 [Example 25, N′-[(3Z)-1-(cyclohexylmethyl)-2-oxo-1,2-dihydro-3H-indol-3-ylidene]benzohydrazide]
[1]
  inhibition at 1 µM: 100 ± 0.4%
[2]
  inhibition at 1 µM: 99 ± 1.1%
hCB2 receptor; [8]
  EC50: 9.8 ± 1.1 nM
hCB2 receptor; [9]
  Emax: 65.7%
CB1; [10]
  EC50: 62.3 ± 1.3 nM
CB1; [9]
  Emax: 99%

## O=C(N/N=C1\C(=O)N(Cc2ccc(Cl)cc2)c2ccccc21)c1ccccc1 [Example 26, N′-[(3Z)-1-(4-chlorobenzyl)-2-oxo-1,2-dihydro-3H-indol-3-ylidene]benzohydrazide]
[1]
  inhibition at 1 µM: 22 ± 1.6%
[2]
  inhibition at 1 µM: 94.5 ± 0.8%
hCB2 receptor; [8]
  EC50: 131 ± 1.7 nM
hCB2 receptor; [9]
  Emax: 39.8%
CB1; [10]
  EC50: 895.6 ± 1.2 nM
CB1; [9]
  Emax: 72%
